Test results as given in patent US20260325661A1, “ANTIBODY-CONJUGATED IMMUNO-ACTIVATING SMALL MOLECULE COMPOUND, AND USE” (SHENZHEN CONJUGENIX PHARMACEUTICAL TECHNOLOGY CO., LTD, priority 2023, published 2026).
Read-outs that look alike come from different tables or passages of the source.

Test system: human peripheral blood mononuclear cells (PBMCs)
Test: ELISA assay of immunocyte activator: induction of IFN-γ in human PBMCs
Type: cell-based
Settings: 24 h, 37 °C, read-out: EC50 IFN-γ ratio (inducing human PBMCs to produce IFN-γ)
Protocol: The immune activity of each compound is represented by the function of inducing human peripheral blood mononuclear cells (PBMCs) to produce the immune cytokine IFN-γ by, and the EC50 values thereof are shown in Table 3.
• 1) Peripheral blood samples from healthy human volunteer were collected into heparin anticoagulant tubes to reach 5 mL of fresh blood, and PBS was added at a ratio of 1:1 to dilute the blood (2 mL+2 mL in conventional blood collection tubes). • 2) 5 mL of lymphocyte separation medium was put in a 15 mL sterile centrifuge tube for use. • 3) The diluted blood was aspirated and slowly added from 1 cm above the separation medium along the tube wall, so that the diluted blood overlaid the separation medium and formed a distinct interface therewith. • 4) The centrifuge tube was centrifuged at 2000 rpm at room temperature for 20 min. Now five layers formed in the centrifuge tube: the top layer was plasma layer, and the layer between the plasma layer and the lymphocyte separation medium was the lymphocyte layer as a white film. • 5) The mononuclear cell layer as a white film in the middle was aspirated carefully and mononuclear cells were aspirated as many as possible. The mononuclear cells were washed by more than 5 volumes of PBS twice, and each time, the mononuclear cells were centrifuged at 1500 rpm for 10 min. • 6) The supernatant was removed, then 1 mL of 1640 medium was added and mixed uniformly. A small amount of the mixture was taken for cell counting.
The prepared PBMCs were plated in a 96-well plate (Costar, 3894) (2×10^5 cells per well). Each compound in Table 3 was taken and added into the wells with plated cells at ten concentrations with uniform gradient distribution (0.0001-10 μM, diluted with […] medium containing […]).

[1] = Note a: sample pretreated with human liver microsomal enzyme, 2 h
[2] = Homo sapiens, PBMC, no pretreatment marked
[3] = Homo sapiens, PBMC, Note a: sample pretreated with human liver microsomal enzyme, 2 h

## C=C(CN1CCC(Cn2c(=O)n(C(=O)NCCNC(=O)OCc3ccc(NC(=O)[C@H](CCCNC(N)=O)NC(=O)[C@@H](NC(=O)CCOCCOCCOCCOCCNC(=O)CCC(=O)N4Cc5ccccc5C#Cc5ccccc54)C(C)C)cc3)c3c(N)nc(O[C@@H](C)CCC)nc32)CC1)C(=O)OCC [Compound K51]
[1]
  EC50: 2 nM

## C=C(CN1CCC(Cn2c(=O)n(C(=O)NCCNC(=O)OCc3ccc(NC(=O)[C@H](CCCNC(N)=O)NC(=O)[C@@H](NC(=O)CCOCCOCCOCCOCCNC(=O)CCC(=O)N4Cc5ccccc5C#Cc5ccccc54)C(C)C)cc3)c3c(N)nc(OCCCC)nc32)CC1)C(=O)OCC [Compound K52]
[1]
  EC50: 120 nM

## C=C(CN1CCC(n2cc(Cn3c(=O)[nH]c4c(N)nc(O[C@@H](C)CCC)nc43)nn2)CC1)C(=O)NCCOCCOCCOCCOCCNC(=O)CCC(=O)N1Cc2ccccc2C#Cc2ccccc21 [Compound K54]
[2]
  EC50: 18 nM

## C=C(CN1CCC(n2cc(Cn3c(=O)n(COC(=O)OCCOCCOCCOCCNC(=O)CCC(=O)N4Cc5ccccc5C#Cc5ccccc54)c4c(N)nc(O[C@@H](C)CCC)nc43)nn2)CC1)C(=O)OCC [Compound K55]
[1]
  EC50: 21 nM

## CCC[C@H](C)Oc1nc(N)c2c(n1)n(CC1CCN(C(=O)/C=C/C(=O)c3ccc(OC)cc3)CC1)c(=O)n2C(=O)NCCNC(=O)OCc1ccc(NC(=O)[C@H](CCCNC(N)=O)NC(=O)[C@@H](NC(=O)CCOCCOCCOCCOCCNC(=O)CCC(=O)N2Cc3ccccc3C#Cc3ccccc32)C(C)C)cc1 [Compound K57]
[1]
  EC50: 3 nM

## CCCCOc1nc(N)c2c(n1)n(CC1CCN(C(=O)/C=C/C(=O)c3ccc(OC)cc3)CC1)c(=O)n2C(=O)NCCNC(=O)OCc1ccc(NC(=O)[C@H](CCCNC(N)=O)NC(=O)[C@@H](NC(=O)CCOCCOCCOCCOCCNC(=O)CCC(=O)N2Cc3ccccc3C#Cc3ccccc32)C(C)C)cc1 [Compound K58]
[1]
  EC50: 9 nM

## C=C(CC)C(=O)c1ccc(OCC(=O)NCc2ccc(Cn3c(=O)n(COC(=O)OCc4ccc(NC(=O)[C@H](C)NC(=O)[C@@H](NC(=O)CCOCCOCCOCCOCCNC(=O)CCC(=O)N5Cc6ccccc6C#Cc6ccccc65)C(C)C)cc4)c4c(N)nc(OCCOC)nc43)cc2)c(Cl)c1Cl [Compound K60]
[1]
  EC50: 90 nM

## C=C(CN1CCN(C(=O)n2c(=O)n(CCCc3cn(CCOCCOCCOCC(=O)OCC)nn3)c3nc(OCCCC)nc(N)c32)CC1)C(=O)NCCOCCOCCOCCOCCNC(=O)CCC(=O)N1Cc2ccccc2C#Cc2ccccc21 [Compound K61]
Homo sapiens, PBMC, pH 6, 24 h, Note b: sample pretreated with equimolar glutathione, PBS pH 6, 37 °C
  EC50: 2 nM

## C=C(CN(C[C@H](C)c1ccc(-c2c(O)cc(C)c3[nH]c(=O)c4sccc4c23)cc1)C(=O)OCc1ccc(NC(=O)[C@H](CCCNC(N)=O)NC(=O)[C@@H](NC(=O)CCOCCOCCOCCOCCN2C(=O)C=CC2=O)C(C)C)cc1)C(=O)N1CCC(n2cc(Cn3c(=O)n(C(=O)N4CCN(C)CC4)c4c(N)nc(OCCCC)nc43)nn2)CC1 [Compound K62]
[3]
  EC50: 10 nM

## CCC[C@H](C)Oc1nc(N)c2c(n1)n(CC1CC[N+]([O-])(CCO)CC1)c(=O)n2C(=O)NCCNC(=O)OCc1ccc(NC(=O)[C@H](CCCNC(N)=O)NC(=O)[C@@H](NC(=O)CCOCCOCCOCCOCCNC(=O)CCC(=O)N2Cc3ccccc3C#Cc3ccccc32)C(C)C)cc1 (stereo partly shown) [Compound K63]
[3]
  EC50: 80 nM

## C=C(CN(CCCCc1cn(CCOCCOCCOCCn2cc(Cn3c(=O)[nH]c4c(N)nc(OCCCC)nc43)nn2)nn1)C[C@H](C)c1ccc(-c2c(O)cc(C)c3[nH]c(=O)c4sccc4c23)cc1)C(=O)NCCCCCCNC(=O)[C@@H](CCCCn1cc(COCCOCCOCCN=C=S)nn1)NC(=O)CCC(=O)NCc1ccc(Cn2c(=O)[nH]c3c(N)nc(OCCOC)nc32)cc1 [Compound K64]
[2]
  EC50: 10 nM

## C=CCNC(=S)NCC(=O)n1c(=O)n(Cc2ccc(CNC(=O)CCc3cn(CCOCCOCCOCCNC(=O)CCN4C(=O)C=CC4=O)nn3)cc2)c2nc(OCCOC)nc(N)c21 [Compound K67]
Homo sapiens, PBMC, pH 5, 24 h, Note d: sample pretreated by hydrolysis, acetate buffer pH 5, 37 °C, 72 h
  EC50: 260 nM

## C#CCn1c(=O)[nH]c2c(N)nc(OCCCC)nc21 [GY100, reference compound]
[2]
  EC50: 110 nM

## C#CCCCn1c(=O)[nH]c2c(N)nc(OCCCC)nc21 [GY121, reference compound]
[2]
  EC50: 50 nM

## CCCCOc1nc(N)c2nc(O)n(Cc3cn(CCOCCOCCOCCN=[N+]=[N-])nn3)c2n1 [GY155, reference compound]
No pretreatment marked
  EC50: 330 nM

## CCC[C@H](C)Oc1nc(N)c2[nH]c(=O)n(Cc3cn(C4CCNCC4)nn3)c2n1 [GY228]
[2]
  EC50: 54 nM

## C=C(CN1CCC(n2cc(Cn3c(=O)[nH]c4c(N)nc(O[C@@H](C)CCC)nc43)nn2)CC1)C(=O)OCC [GY229]
[2]
  EC50: 28 nM

## C=C(CN1CCC(n2cc(Cn3c(=O)[nH]c4c(N)nc(O[C@@H](C)CCC)nc43)nn2)CC1)C(=O)O [GY300]
[2]
  EC50: 31 nM

## CCCCOc1nc(N)c2[nH]c(=O)n(CCCc3cn(CCOCCOCCOCC(=O)OCC)nn3)c2n1 [GY1401]
[2]
  EC50: 2 nM

## CCCCOc1nc(N)c2[nH]c(=O)n(Cc3ccc(NC(=S)Nc4sc5c(c4C(=O)OCC)CCCC5)cc3)c2n1 [KJ005]
[2]
  EC50: 370 nM

## CCCCOc1nc(N)c2[nH]c(=O)n(Cc3ccc(NC(=S)Nc4sc5c(c4C(=O)O)CCCC5)cc3)c2n1 [KJ006]
[2]
  EC50: 290 nM

## CCC[C@H](C)Oc1nc(N)c2[nH]c(=O)n(CC3CCNCC3)c2n1 [KJ-1b, reference compound]
[2]
  EC50: 18 nM

## CCC[C@H](C)Oc1nc(N)c2[nH]c(=O)n(CC3CCN(CCO)CC3)c2n1 [KJ-3b, reference compound]
[2]
  EC50: 210 nM

## CCC[C@H](C)Oc1nc(N)c2[nH]c(=O)n(CC3CC[N+]([O-])(CCO)CC3)c2n1 (stereo partly shown) [KJ-3b-O]
[2]
  EC50: 90 nM

## COCCOc1nc(N)c2[nH]c(=O)n(Cc3ccc(CNC(=O)CCc4cn(CCOCCOCCOCCNC(=O)CCN5C(=O)C=CC5=O)nn4)cc3)c2n1 [KJ-008]
[2]
  EC50: 7 nM

## CCCCOc1nc(N)c2[nH]c(=O)n(Cc3cn(CCN)nn3)c2n1 [KJ-032]
[2]
  EC50: 110 nM

## C=C(CN1CCC(Cn2c(=O)[nH]c3c(N)nc(O[C@@H](C)CCC)nc32)CC1)C(=O)OCC [KJ-096]
[2]
  EC50: 3 nM

## C=C(CN1CCC(Cn2c(=O)[nH]c3c(N)nc(O[C@@H](C)CCC)nc32)CC1)C(=O)O [KJ-097]
[2]
  EC50: 1 nM

## C=C(CN1CCC(Cn2c(=O)[nH]c3c(N)nc(OCCCC)nc32)CC1)C(=O)OCC [KJ-098]
[2]
  EC50: 310 nM

## C=C(CN1CCC(Cn2c(=O)[nH]c3c(N)nc(OCCCC)nc32)CC1)C(=O)O [KJ-099]
[2]
  EC50: 420 nM

## CCC[C@H](C)Oc1nc(N)c2[nH]c(=O)n(CC3CCN(C(=O)/C=C/C(=O)c4ccc(OC)cc4)CC3)c2n1 [KJ-102]
[2]
  EC50: 3 nM

## CCCCOc1nc(N)c2[nH]c(=O)n(CC3CCN(C(=O)/C=C/C(=O)c4ccc(OC)cc4)CC3)c2n1 [KJ-104]
[2]
  EC50: 9 nM

## C=C(CC(=O)O)C(=O)NCc1ccc(Cn2c(=O)[nH]c3c(N)nc(OCCOC)nc32)cc1 [KJ-138]
[2]
  EC50: 50 nM

## CCCCOc1nc(N)c2[nH]cc(Cc3ccc4c(c3)CNCC4)c2n1 [PMQ-1, reference compound]
[2]
  EC50: 320 nM

## COCCOc1nc(N)c2[nH]c(=O)n(Cc3ccc(CNC(=O)CCC(=O)O)cc3)c2n1 [SZU-101, reference compound]
No pretreatment marked
  EC50: 500 nM

## C=C(CC)C(=O)c1ccc(OCC(=O)NCc2ccc(Cn3c(=O)[nH]c4c(N)nc(OCCOC)nc43)cc2)c(Cl)c1Cl [SZU-103, reference compound]
[2]
  EC50: 100 nM

## C#CCCCCC(NC(=O)CCC(=O)NCc1ccc(Cn2c(=O)[nH]c3c(N)nc(OCCOC)nc32)cc1)C(=O)O (stereo not shown) [SZU-115, reference compound]
No pretreatment marked, listed as GY115, 1440 min
  EC50: 300 nM

## C#CCCC(=O)NCc1ccc(Cn2c(=O)[nH]c3c(N)nc(OCCOC)nc32)cc1 [SZU-136, reference compound]
[2]
  EC50: 370 nM

## COCCOc1nc(N)c2[nH]c(=O)n(Cc3ccc(CNC(=O)CCC(=O)NC(CCCCc4cn(CCOCCOCCOc5c(OC)cc(/C=C/C(=O)N6CCC=CC6=O)cc5OC)nn4)C(=O)O)cc3)c2n1 (stereo not shown) [SZU-191]
[2]
  EC50: 100 nM

## C=C(CC(=O)OC)C(=O)NCc1ccc(Cn2c(=O)[nH]c3c(N)nc(OCCOC)nc32)cc1 [SZU-275]
[2]
  EC50: 1 nM
